Viability and inhibition data for 48 compounds are collected here from ChEMBL document CHEMBL3596148, “Meridianin derivatives as potent Dyrk1A inhibitors and neuroprotective agents” (Bioorg Med Chem Lett, 2015).

The structures appear in SMILES notation.

A short description of data set [1]: Cytotoxicity against human SH-SY5Y cells assessed as cell viability at 30 uM after 24 hrs by MTT assay relative to control. The conditions noted are these: read-out: Activity. It is filed as cell-based.
In data set [2] the target is Cyclin-dependent kinase 9 (Homo sapiens) (UniProt P50750). The experiment in a line: Inhibition of CDK9 (unknown origin) at 0.5 uM relative to control.
In data set [3] the target is Vascular endothelial growth factor receptor 1 (Homo sapiens) (UniProt P17948). The experiment in a line: Inhibition of VEGFR1 (unknown origin) at 0.5 uM relative to control.
Data set [4] deals with Casein kinase I isoform alpha (Homo sapiens) (UniProt P48729). Briefly: Inhibition of CK1 (unknown origin) at 0.5 uM relative to control.
In data set [5] the target is T1, Inhibitor of nuclear factor kappa-B kinase subunit beta (Homo sapiens) (UniProt O14920).
T1 sequence (whole entry): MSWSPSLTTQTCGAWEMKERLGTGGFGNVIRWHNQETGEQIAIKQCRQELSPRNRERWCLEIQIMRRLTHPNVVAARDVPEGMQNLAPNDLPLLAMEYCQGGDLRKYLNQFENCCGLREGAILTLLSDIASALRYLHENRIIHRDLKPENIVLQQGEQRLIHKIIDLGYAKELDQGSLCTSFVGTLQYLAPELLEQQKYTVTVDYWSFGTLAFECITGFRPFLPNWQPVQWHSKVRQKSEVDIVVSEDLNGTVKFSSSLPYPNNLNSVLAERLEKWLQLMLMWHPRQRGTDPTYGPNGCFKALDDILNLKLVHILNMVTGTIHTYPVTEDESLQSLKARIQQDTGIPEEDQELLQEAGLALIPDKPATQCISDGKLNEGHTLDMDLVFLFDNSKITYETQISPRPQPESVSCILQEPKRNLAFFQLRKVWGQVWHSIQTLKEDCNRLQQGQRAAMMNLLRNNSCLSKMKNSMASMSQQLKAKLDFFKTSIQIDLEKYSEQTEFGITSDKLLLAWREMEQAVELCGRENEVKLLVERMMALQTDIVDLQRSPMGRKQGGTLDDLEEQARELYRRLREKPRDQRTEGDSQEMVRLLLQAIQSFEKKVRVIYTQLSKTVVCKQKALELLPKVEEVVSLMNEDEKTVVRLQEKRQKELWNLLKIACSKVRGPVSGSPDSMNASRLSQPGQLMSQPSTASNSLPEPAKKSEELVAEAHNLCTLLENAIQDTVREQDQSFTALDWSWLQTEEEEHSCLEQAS
Briefly: Inhibition of IKKbeta (unknown origin) at 0.5 uM relative to control.

Data set [6] addresses RAC-alpha serine/threonine-protein kinase (Homo sapiens) (UniProt P31749). The experiment in a line: Inhibition of PKBalpha (unknown origin) at 0.5 uM relative to control.
The target of data set [7] is Cyclin-dependent kinase 2 (Homo sapiens) (UniProt P24941). The experiment in a line: Inhibition of CDK2 (unknown origin) at 0.5 uM relative to control.
In data set [8] the target is Tyrosine-protein kinase ABL1 (Homo sapiens) (UniProt P00519). Briefly: Inhibition of Abl (unknown origin) at 0.5 uM relative to control.
For data set [9], the target named is RAC-beta serine/threonine-protein kinase (Homo sapiens) (UniProt P31751). Briefly: Inhibition of PKBbeta (unknown origin) at 0.5 uM relative to control.
The target of data set [10] is T2, Aurora kinase A (Homo sapiens) (UniProt O14965).
T2 sequence (whole entry): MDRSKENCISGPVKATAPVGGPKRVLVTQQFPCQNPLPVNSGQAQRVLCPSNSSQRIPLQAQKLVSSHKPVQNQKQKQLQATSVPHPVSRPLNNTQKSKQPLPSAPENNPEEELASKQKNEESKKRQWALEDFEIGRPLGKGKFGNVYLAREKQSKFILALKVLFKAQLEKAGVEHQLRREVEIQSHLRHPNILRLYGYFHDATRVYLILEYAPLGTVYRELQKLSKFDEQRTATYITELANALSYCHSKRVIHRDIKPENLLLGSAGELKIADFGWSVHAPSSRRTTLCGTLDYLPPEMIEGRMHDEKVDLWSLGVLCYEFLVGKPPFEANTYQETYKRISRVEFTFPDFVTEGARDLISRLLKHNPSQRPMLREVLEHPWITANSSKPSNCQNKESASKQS
The experiment in a line: Inhibition of Aurora A (unknown origin) at 0.5 uM relative to control.

For data set [11], the target named is AMP-activated protein kinase, AMPK (Homo sapiens) (UniProt P54646+O43741+P54619+Q9UGJ0+Q9Y478+Q13131+Q9UGI9). Briefly: Inhibition of AMPK (unknown origin) at 0.5 uM relative to control. It is filed as protein-complex assay.
The target of data set [12] is Aurora kinase B (Homo sapiens) (UniProt Q96GD4). The experiment in a line: Inhibition of Aurora B (unknown origin) at 0.5 uM relative to control.
Data set [13] addresses Insulin receptor (Homo sapiens) (UniProt P06213). Briefly: Inhibition of IR (unknown origin) at 0.5 uM relative to control.
For data set [14], the target named is Glycogen synthase kinase-3 beta (Homo sapiens) (UniProt P49841). Briefly: Inhibition of GSK3beta (unknown origin) at 0.5 uM relative to control.
Data set [15] has as its target Protein kinase C alpha type (Homo sapiens) (UniProt P17252). The experiment in a line: Inhibition of PKCalpha (unknown origin) at 0.5 uM relative to control.
The target in data set [16] is Insulin-like growth factor 1 receptor (Homo sapiens) (UniProt P08069). Briefly: Inhibition of IGF-1R (unknown origin) at 0.5 uM relative to control.
Insulin-like growth factor 1 receptor (Homo sapiens), sequence (P08069 31-736 limits assumed): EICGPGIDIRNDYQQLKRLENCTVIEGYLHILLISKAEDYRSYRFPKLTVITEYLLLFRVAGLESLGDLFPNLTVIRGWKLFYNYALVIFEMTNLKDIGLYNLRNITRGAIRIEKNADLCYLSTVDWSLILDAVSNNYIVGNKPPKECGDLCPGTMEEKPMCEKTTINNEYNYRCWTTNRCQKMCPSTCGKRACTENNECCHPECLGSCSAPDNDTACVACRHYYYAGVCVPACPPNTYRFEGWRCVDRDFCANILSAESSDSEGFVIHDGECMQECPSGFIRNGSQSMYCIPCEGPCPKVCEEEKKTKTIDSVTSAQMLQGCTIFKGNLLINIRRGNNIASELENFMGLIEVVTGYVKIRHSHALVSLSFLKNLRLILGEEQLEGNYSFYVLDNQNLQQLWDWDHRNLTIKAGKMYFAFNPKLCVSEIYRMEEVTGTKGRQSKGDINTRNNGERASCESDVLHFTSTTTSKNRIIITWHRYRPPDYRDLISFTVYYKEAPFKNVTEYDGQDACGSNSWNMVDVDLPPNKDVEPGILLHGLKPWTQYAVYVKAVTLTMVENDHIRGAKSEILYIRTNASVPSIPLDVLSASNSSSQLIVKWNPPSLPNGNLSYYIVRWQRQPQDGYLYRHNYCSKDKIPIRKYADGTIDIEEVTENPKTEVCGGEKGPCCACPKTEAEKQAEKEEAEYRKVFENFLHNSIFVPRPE
Insulin-like growth factor 1 receptor (Homo sapiens), sequence (P08069 741-1367 limits assumed): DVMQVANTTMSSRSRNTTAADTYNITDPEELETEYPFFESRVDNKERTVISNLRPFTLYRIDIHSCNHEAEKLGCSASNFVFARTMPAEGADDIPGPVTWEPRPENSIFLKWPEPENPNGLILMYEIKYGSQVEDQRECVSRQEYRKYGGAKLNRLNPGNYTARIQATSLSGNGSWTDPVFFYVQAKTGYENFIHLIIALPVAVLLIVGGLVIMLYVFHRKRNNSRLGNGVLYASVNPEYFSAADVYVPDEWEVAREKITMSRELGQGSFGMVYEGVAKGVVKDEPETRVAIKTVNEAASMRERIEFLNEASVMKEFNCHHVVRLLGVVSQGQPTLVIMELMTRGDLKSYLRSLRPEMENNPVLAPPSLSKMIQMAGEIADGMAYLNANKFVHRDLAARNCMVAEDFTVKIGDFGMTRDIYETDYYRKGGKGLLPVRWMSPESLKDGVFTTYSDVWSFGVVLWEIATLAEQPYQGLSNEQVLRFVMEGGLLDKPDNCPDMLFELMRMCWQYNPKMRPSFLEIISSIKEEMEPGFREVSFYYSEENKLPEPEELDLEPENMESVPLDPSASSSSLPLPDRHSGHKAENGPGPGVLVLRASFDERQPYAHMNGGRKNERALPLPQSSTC

RAC-alpha serine/threonine-protein kinase (Homo sapiens), sequence (P31749 whole entry): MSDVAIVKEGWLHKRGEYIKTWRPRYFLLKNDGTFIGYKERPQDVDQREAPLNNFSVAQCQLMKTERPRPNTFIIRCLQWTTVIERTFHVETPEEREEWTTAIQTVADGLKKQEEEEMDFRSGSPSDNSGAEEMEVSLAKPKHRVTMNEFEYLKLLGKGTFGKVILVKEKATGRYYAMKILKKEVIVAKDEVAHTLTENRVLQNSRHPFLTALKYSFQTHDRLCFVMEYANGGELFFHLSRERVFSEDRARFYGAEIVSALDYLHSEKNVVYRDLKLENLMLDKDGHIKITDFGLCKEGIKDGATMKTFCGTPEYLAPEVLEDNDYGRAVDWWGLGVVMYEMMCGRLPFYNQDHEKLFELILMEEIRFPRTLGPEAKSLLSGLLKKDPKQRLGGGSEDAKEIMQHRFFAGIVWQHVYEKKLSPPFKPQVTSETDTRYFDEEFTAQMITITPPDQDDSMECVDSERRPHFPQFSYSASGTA
Tyrosine-protein kinase ABL1 (Homo sapiens), sequence (P00519 whole entry): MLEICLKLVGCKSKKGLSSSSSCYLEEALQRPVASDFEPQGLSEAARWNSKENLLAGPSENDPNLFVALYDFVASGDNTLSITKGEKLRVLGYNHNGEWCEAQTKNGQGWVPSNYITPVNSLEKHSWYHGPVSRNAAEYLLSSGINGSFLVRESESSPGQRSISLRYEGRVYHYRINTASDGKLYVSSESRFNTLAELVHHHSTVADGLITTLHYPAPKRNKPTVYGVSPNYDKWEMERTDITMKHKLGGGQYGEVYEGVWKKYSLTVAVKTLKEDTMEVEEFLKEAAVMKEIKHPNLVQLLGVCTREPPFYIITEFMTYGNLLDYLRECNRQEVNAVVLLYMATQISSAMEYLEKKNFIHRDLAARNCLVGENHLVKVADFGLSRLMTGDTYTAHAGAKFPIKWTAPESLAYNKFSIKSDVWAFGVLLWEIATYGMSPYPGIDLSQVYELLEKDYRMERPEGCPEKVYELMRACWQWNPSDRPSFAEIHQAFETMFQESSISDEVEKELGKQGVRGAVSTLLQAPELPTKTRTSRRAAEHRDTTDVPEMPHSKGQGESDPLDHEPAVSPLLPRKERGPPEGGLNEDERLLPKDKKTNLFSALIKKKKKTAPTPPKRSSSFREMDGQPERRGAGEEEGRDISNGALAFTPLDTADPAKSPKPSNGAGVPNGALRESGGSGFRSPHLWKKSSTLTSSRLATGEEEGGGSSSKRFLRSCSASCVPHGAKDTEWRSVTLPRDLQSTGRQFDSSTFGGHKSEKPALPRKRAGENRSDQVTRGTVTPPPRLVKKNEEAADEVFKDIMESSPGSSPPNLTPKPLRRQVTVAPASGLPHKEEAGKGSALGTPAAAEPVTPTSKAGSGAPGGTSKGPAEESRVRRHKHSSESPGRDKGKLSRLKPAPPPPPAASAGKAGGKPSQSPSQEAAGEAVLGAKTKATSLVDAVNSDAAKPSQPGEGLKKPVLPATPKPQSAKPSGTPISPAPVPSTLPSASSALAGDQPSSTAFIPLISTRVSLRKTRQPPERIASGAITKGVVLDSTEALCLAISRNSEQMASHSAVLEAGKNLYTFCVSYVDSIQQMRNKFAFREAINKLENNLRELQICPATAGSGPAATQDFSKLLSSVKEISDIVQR
Glycogen synthase kinase-3 beta (Homo sapiens), sequence (P49841 whole entry, looked up): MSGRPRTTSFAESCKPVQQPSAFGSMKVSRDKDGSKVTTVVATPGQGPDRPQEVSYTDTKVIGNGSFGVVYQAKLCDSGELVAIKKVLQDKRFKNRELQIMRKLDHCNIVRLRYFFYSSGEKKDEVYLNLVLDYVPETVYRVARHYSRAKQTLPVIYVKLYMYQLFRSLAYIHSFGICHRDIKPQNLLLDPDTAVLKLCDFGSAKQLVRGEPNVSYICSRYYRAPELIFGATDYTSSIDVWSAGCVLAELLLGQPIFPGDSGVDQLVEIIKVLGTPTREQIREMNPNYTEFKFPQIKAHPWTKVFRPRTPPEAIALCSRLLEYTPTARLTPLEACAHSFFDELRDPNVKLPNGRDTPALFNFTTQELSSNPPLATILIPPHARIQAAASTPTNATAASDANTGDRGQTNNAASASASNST
RAC-beta serine/threonine-protein kinase (Homo sapiens), sequence (P31751 whole entry): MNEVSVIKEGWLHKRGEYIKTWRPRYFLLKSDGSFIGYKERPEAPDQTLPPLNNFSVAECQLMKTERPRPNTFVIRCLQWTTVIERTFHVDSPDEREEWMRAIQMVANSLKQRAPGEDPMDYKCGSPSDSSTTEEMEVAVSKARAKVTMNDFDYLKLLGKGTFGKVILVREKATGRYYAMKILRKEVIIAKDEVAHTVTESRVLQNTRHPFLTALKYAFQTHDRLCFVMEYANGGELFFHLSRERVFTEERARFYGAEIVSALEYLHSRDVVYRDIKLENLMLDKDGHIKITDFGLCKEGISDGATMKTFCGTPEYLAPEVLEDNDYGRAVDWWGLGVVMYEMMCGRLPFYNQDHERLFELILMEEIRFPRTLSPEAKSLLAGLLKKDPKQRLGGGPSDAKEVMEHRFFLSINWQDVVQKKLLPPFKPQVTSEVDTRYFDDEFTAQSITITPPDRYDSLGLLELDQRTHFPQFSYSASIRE
Casein kinase I isoform alpha (Homo sapiens), sequence (P48729 2-337 limits assumed): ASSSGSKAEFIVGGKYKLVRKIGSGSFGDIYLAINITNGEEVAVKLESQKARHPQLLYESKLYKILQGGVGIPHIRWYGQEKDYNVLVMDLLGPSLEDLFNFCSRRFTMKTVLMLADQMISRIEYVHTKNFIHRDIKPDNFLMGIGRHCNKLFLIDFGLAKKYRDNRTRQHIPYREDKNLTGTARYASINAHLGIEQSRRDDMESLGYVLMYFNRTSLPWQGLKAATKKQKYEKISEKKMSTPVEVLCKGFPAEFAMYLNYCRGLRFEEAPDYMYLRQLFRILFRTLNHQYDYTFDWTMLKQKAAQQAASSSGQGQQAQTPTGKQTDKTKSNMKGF

On to `Nc1nccc(-c2cn(S(=O)(=O)c3ccc(OC(F)(F)F)cc3)c3ccc(Br)cc23)n1`, for which the viability at 24 h, 30 µM in [1] came to 74%.

For `O=C1NC(c2c[nH]c3ccc(Br)cc23)Nc2ccccc21` (stereo not drawn), the viability at 24 h, 30 µM in [1] came to 41.5%.

As to `Cc1c(C)c(C)c(S(=O)(=O)n2cc(-c3ccnc(N)n3)c3ccccc32)c(C)c1C`, the viability at 24 h, 30 µM in data set [1] is 49%.

On to `COc1ccc(Br)cc1S(=O)(=O)n1cc(-c2ccnc(N)n2)c2ccccc21`, for which the viability at 24 h, 30 µM in [1] is 96.2%.

Take `Cc1ccsc1C(=O)n1cc(-c2ccnc(N)n2)c2ccccc21`: the viability at 24 h, 30 µM in data set [1] came to 82%.

Take `Nc1nccc(-c2cn(S(=O)(=O)c3ccc4c(c3)OCCO4)c3ccc(Br)cc23)n1`: the viability at 24 h, 30 µM in data set [1] was 112%.

Turning to `COCCn1cc(-c2ccnc(N)n2)c2cc(Br)ccc21`, in [1], the viability at 24 h, 30 µM came out at 75.3%.

For the compound `Nc1nccc(-c2cn(CN3C(=O)c4ccccc4C3=O)c3ccccc23)n1`, in data set [1], the viability at 24 h, 30 µM is 101%.

As for `CN1CCN(C(=O)n2cc(-c3ccnc(N)n3)c3ccccc32)CC1`, in data set [1], the viability at 24 h, 30 µM amounted to 82%.

Regarding `COc1ccc(S(=O)(=O)n2cc(-c3ccnc(N)n3)c3cc(Br)ccc32)cc1`, the viability at 24 h, 30 µM in data set [1] is 99%.

With `Nc1nccc(-c2cn(Cc3c4ccccc4cc4ccccc34)c3ccc(Br)cc23)n1`, in data set [1], the viability at 24 h, 30 µM is 79.8%.

Regarding `Nc1nccc(-c2cn(S(=O)(=O)c3ccc([N+](=O)[O-])cc3)c3ccc(Br)cc23)n1`, in data set [1], the viability at 24 h, 30 µM amounted to 59%.

On to `CN1CCN(C(=O)n2cc(-c3ccnc(N)n3)c3cc(Br)ccc32)CC1`, for which the viability at 24 h, 30 µM in [1] is 91.8%.

With `Nc1nccc(-c2cn(S(=O)(=O)c3ccc([N+](=O)[O-])cc3)c3ccccc23)n1`, the viability at 24 h, 30 µM in data set [1] worked out at 56%.

For `Nc1nccc(-c2cn(S(=O)(=O)c3ccc4c(c3)OCCO4)c3ccccc23)n1`, the viability at 24 h, 30 µM in data set [1] came to 59.4%.

Take `Nc1nccc(-c2cn(C(=O)N3CCOCC3)c3ccccc23)n1`: the viability at 24 h, 30 µM in [1] was found to be 97.3%.

For `CC(C)(C)c1ccc(S(=O)(=O)n2cc(-c3ccnc(N)n3)c3cc(Br)ccc32)cc1`, in [1], the viability at 24 h, 30 µM was found to be 109%.

As to `N#Cc1ccc(S(=O)(=O)n2cc(-c3ccnc(N)n3)c3cc(Br)ccc32)cc1`, in data set [1], the viability at 24 h, 30 µM is 106%.

Take `CC(C)(C)c1ccc(S(=O)(=O)n2cc(-c3ccnc(N)n3)c3ccccc32)cc1`: the viability at 24 h, 30 µM in data set [1] stood at 86.3%.

On to `Nc1nccc(-c2cn(Cc3ccc(Cl)s3)c3ccccc23)n1`, for which, in data set [1], the viability at 24 h, 30 µM was determined as 115%.

With `Nc1nccc(-c2cn(S(=O)(=O)c3ccc(F)cc3F)c3ccccc23)n1`, the viability at 24 h, 30 µM in data set [1] stood at 99.1%.

Take `N#Cc1ccc(S(=O)(=O)n2cc(-c3ccnc(N)n3)c3ccccc32)cc1`: the viability at 24 h, 30 µM in [1] is 110%.

With `Nc1nccc(-c2cn(S(=O)(=O)c3cccc(C(F)(F)F)c3)c3ccc(Br)cc23)n1`, in data set [1], the viability at 24 h, 30 µM was 38.8%.

With `Cc1c(C)c(C)c(S(=O)(=O)n2cc(-c3ccnc(N)n3)c3cc(Br)ccc32)c(C)c1C`, the viability at 24 h, 30 µM in data set [1] came out at 107%.

`Nc1nccc(-c2cn(S(=O)(=O)c3ccc(Cl)cc3Cl)c3ccccc23)n1`: the viability at 24 h, 30 µM in data set [1] was 55.4%.

On to `COc1cccc(C(=O)n2cc(-c3ccnc(N)n3)c3ccccc32)c1`, for which, in data set [1], the viability at 24 h, 30 µM worked out at 94.6%.

On to `Nc1nccc(-c2cn(S(=O)(=O)c3ccc(Br)cc3)c3ccccc23)n1`, for which the viability at 24 h, 30 µM in [1] was 91.4%.

For the compound `Cc1cc(C)c(S(=O)(=O)n2cc(-c3ccnc(N)n3)c3ccccc32)c(C)c1`, the viability at 24 h, 30 µM in data set [1] came out at 40%.

Regarding `CCOc1ccccc1C(=O)n1cc(-c2ccnc(N)n2)c2ccccc21`, in data set [1], the viability at 24 h, 30 µM is 46.6%.

Usually inhibition stands for the relative decrease from the control value, in per cent. Lower therefore signals a weak effect. With `Cc1noc(C)c1Cn1cc(-c2ccnc(N)n2)c2ccccc21`, the inhibition in [2] turned out to be 14%; in data set [3], 13.5%; in [4] it was 22.7%; in [5], 3%; in data set [6], 10.9%; in data set [7], 0%. Further, the inhibition was found to be 6.3% in [8]; 0% in data set [9]; 0% in data set [10]; 9.5% in data set [11]; 10.1% in data set [12]; 17.7% in data set [13]. Moreover, the inhibition was 6.1% in [14], 36.9% in data set [15] and 0% in data set [16]. Moreover, the viability at 24 h, 30 µM in [1] amounted to 88.5%.

Consider `Nc1nccc(-c2cn(S(=O)(=O)c3ccc(I)cc3)c3ccccc23)n1`, for which the viability at 24 h, 30 µM in data set [1] came to 57.5%.

For the compound `Nc1nccc(-c2cn(S(=O)(=O)c3cc(C(F)(F)F)cc(C(F)(F)F)c3)c3ccc(Br)cc23)n1`, in data set [1], the viability at 24 h, 30 µM came to 76.4%.

For `Nc1nccc(-c2cn(S(=O)(=O)c3cc(C(F)(F)F)cc(C(F)(F)F)c3)c3ccccc23)n1`, the viability at 24 h, 30 µM in data set [1] is 72.4%.

With `COc1ccc(S(=O)(=O)n2cc(-c3ccnc(N)n3)c3ccccc32)cc1OC`, the viability at 24 h, 30 µM in data set [1] came out at 127%.

Consider `CC(=O)Nc1ccc(S(=O)(=O)n2cc(-c3ccnc(N)n3)c3cc(Br)ccc32)cc1`, for which the viability at 24 h, 30 µM in [1] is 71.6%.

In the case of `Cc1cc(C)c(S(=O)(=O)n2cc(-c3ccnc(N)n3)c3cc(Br)ccc32)c(C)c1`, the viability at 24 h, 30 µM in data set [1] was 109%.

Regarding `Nc1nccc(-c2c[nH]c3ccc(Br)cc23)n1` [MERIDIANIN C], in data set [1], the viability at 24 h, 30 µM is 92.9%.

As to `Nc1nccc(-c2cn(Cc3ccc(Cl)s3)c3ccc(Br)cc23)n1`, in [1], the viability at 24 h, 30 µM is 24%.

As for `Nc1nccc(-c2cn(S(=O)(=O)c3cccc(C(F)(F)F)c3)c3ccccc23)n1`, the viability at 24 h, 30 µM in data set [1] was 76.1%.

In the case of `Nc1nccc(-c2cn(C(=O)c3ccccc3)c3ccccc23)n1`, in [1], the viability at 24 h, 30 µM came out at 106%.

`O=c1[nH]c(-c2c[nH]c3ccc(I)cc23)nc2ccccc12`: in data set [1], the viability at 24 h, 30 µM amounted to 24%.

In the case of `COc1ccc(S(=O)(=O)n2cc(-c3ccnc(N)n3)c3ccccc32)cc1`, in [1], the viability at 24 h, 30 µM was determined as 58.8%.

For `Nc1nccc(-c2cn(Cc3c4ccccc4cc4ccccc34)c3ccccc23)n1`, the viability at 24 h, 30 µM in data set [1] is 96%.

Regarding `Nc1nccc(-c2cn(S(=O)(=O)c3ccc(C(F)(F)F)cc3)c3ccccc23)n1`, the viability at 24 h, 30 µM in data set [1] was 95.6%.

Take `Nc1nccc(-c2cn(S(=O)(=O)c3ccc(C(F)(F)F)cc3)c3ccc(Br)cc23)n1`: in data set [1], the viability at 24 h, 30 µM is 85%.

Take `Nc1nccc(-c2cn(S(=O)(=O)c3ccc4ccccc4c3)c3ccccc23)n1`: the viability at 24 h, 30 µM in data set [1] is 61.6%.

Take `Cc1noc(C)c1Cn1cc(-c2ccnc(N)n2)c2cc(Br)ccc21`: the viability at 24 h, 30 µM in [1] was 83.1%.

Regarding `O=C1NC(c2c[nH]c3ccccc23)Nc2ccccc21` (stereo not drawn), in [1], the viability at 24 h, 30 µM was 83.1%.
